Measured values reported in PubChem BioAssay AID2124 (Sanford-Burnham Center for Chemical Genomics, 2009).
Records with an inconclusive call do not appear. Calls of active or inactive are those of the source. No rule for the calls is given here; tested in MIN6 cells.

Test: GFP-wavelength compound autofluorescence in cells – imaging, high-content imaging, artefact control, dose response (AID 2124);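 also: cells exposed to compound for 48 hours before fixing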
Conditions: cells, GFP-channel autofluorescence, high-content imaging, at 10 µM; for z-score: stronger effect = higher value

Structure (SMILES)	z-score	cell count [cells]
Cc1cc(C)n(-c2ccc(C(=O)OCC(=O)N(CC(C)C)C3CCS(=O)(=O)C3)cc2)n1 (stereo unspecified)	-0.33 (inactive)	3480
CC(C)(CNS(=O)(=O)c1ccc(Cl)cc1)N1CCCCC1	-0.34 (inactive)	3730
Cc1ccc(S(=O)(=O)c2cccc(S(=O)(=O)N3CCCC3)c2)cc1S(=O)(=O)N1CCCC1	-0.33 (inactive)	2360
CN(C)CCOCCOc1ccccc1-c1ccccc1	-0.33 (inactive)	3130
CC(C)C1S/C(=N/N=C/c2ccco2)NC1=O (stereo unspecified)	-0.33 (inactive)	3160
Nc1c(C(=O)N/N=C/c2cccnc2)oc2nc(-c3ccco3)cc(-c3ccco3)c12	-0.32 (inactive)	2960
CCCCCCN1C=CC(=C/C=C(\C#N)C(=O)OCC)C=C1	0.43	3270
Cc1[nH]c2ccccc2c1/C=N/Nc1ccc([N+](=O)[O-])cc1S(=O)(=O)Nc1ccc(Cl)cc1	0.35	2050
Cc1ccc(C)c(NC(=O)C(C)CC2COCCO2)c1 (stereo unspecified)	-0.38 (inactive)	3230
O=C1C2C3C=CC(C3)C2C(=O)N1CCc1ccccc1 (stereo unspecified)	-0.33 (inactive)	3430
Cc1cc(Nc2nn(C)c(N)c2C#N)ccc1F	-0.33 (inactive)	3300
O=C(NN=C1CCN(Cc2ccccc2)CC1)c1cccc(S(=O)(=O)Nc2ccccc2Cl)c1	-0.38 (inactive)	3200
COc1ccc(CC(=O)N2CCN(C)CC2)cc1	-0.33 (inactive)	3120
CCOc1ccc(OCC)c(-c2c(=O)n(OCc3ccc(Cl)cc3)c3ccccc3[n+]2[O-])c1	-0.38 (inactive)	2760
CCN(CCNC(=O)C1CCCN(S(=O)(=O)CC)C1)c1ccccc1 (stereo unspecified)	-0.33 (inactive)	3430
N#Cc1c2c(c(-n3cnc4ccccc43)n3c1nc1ccccc13)CCC2	-0.25 (inactive)	3100
c1ccc(-c2csc(-n3cnnn3)n2)cc1	-0.38 (inactive)	3240
CCOC(=O)c1ccc(CSc2nnc(-c3ccncc3)n2N)cc1	-0.33 (inactive)	3110
CCCCCOC(=O)C1=C(C)Nc2nnnn2C1c1ccc(OC)c(OC)c1OC (stereo unspecified)	-0.39 (inactive)	3580
CC(C)NC(=O)N1CCN(c2ccncc2S(=O)(=O)N2CCOCC2)CC1	-0.39 (inactive)	2900
COC(=O)c1sc2ccccc2c1-n1cccc1C(=O)C(=O)Nc1ccc(F)cc1	-0.38 (inactive)	3000
O=c1[nH]c2ccccc2nc1/C=C/c1ccc(F)cc1	-0.32 (inactive)	3060
COc1ccc(C(=O)Nn2cnnc2)cc1OC	-0.39 (inactive)	2930
CN(C)c1ccc(/C=C2\N=C(c3ccc(Cl)c([N+](=O)[O-])c3)NC2=O)cc1	-0.33 (inactive)	2940
COc1ccc(OCCn2cc(/C(N)=N/O)c3ccccc32)cc1	-0.33 (inactive)	2930
N#Cc1ccc(-c2ccccc2)nc1SCC(=O)c1cccc(Cl)c1	-0.23 (inactive)	3340

Structure (SMILES)	z-score	cell count [cells]
C1=C(N2CCOCC2)/C(=C/c2nc3ccccc3[nH]2)CC1	-0.33 (inactive)	3040
c1ccc(-n2ncc3c(N4CCN(c5ccccn5)CC4)nc(N4CCCCCC4)nc32)cc1	-0.38 (inactive)	3020
COc1cc(C)nc(N2CCCC(C(=O)Nc3cccc(Cl)c3C)C2)n1 (stereo unspecified)	-0.38 (inactive)	3090
CCc1c(C(=O)NC2CCCCC2)[nH]c(C)c1C(C)=O	-0.25 (inactive)	3040
Cc1cc(/C=C2\NC(=S)N(C)C2=O)ccc1N1CCCC1	0.07	2980
C=CCN1C(=O)/C(=C/C=C2/N(CC)c3ccc(S(=O)(=O)N(C)C)cc3N2CC)SC1=S	0.26	2740
CC(=O)N1CCN(Cc2nc3cc(NC(=O)c4ccccc4)ccc3n2C)CC1	-0.38 (inactive)	2960
Cc1ccc(-c2cc(-c3ccco3)c3c(N)c(C(=O)NN)oc3n2)cc1	-0.32 (inactive)	2700
CC(=O)C(=Cc1cn(-c2ccccc2)nc1-c1ccccc1)C(C)=O	-0.32 (inactive)	3020
CCN(CC)c1ccc(C=C(c2nnnn2-c2ccccc2)c2nnnn2-c2ccccc2)cc1	-0.26 (inactive)	2370
CCOc1ccc(-n2c(SCC(=O)NC(C)CC)nc3n[nH]c(C)c3c2=N)cc1 (stereo unspecified)	-0.39 (inactive)	2580
Cc1c(C(=O)O)cccc1-c1ccc(/C=C2/NC(=O)N(c3ccccc3)C2=O)o1	-0.39 (inactive)	3120
CCCOc1cc(N(CC)CC)ccc1/C=C(/C#N)c1nc2ccc(C)cc2[nH]1	0.73	1370
Cc1cccc(OCCNc2nc3c(c(=O)n(C)c(=O)n3C)n2C)c1	-0.33 (inactive)	3060
CCN(CC)CCN1C(=O)c2oc3ccccc3c(=O)c2C1c1ccccc1 (stereo unspecified)	-0.33 (inactive)	3330
Cc1cc(C)cc(-n2c(=O)c3sccc3n(CC(=O)NCc3ccco3)c2=O)c1	-0.39 (inactive)	3120
O=C(Cc1nc(-c2ccc([N+](=O)[O-])cc2)cs1)Nc1ccccc1	-0.39 (inactive)	2770
Cc1ccc2[nH]c(-c3ccccc3)c(CN(C)C)c(=O)c2c1	-0.33 (inactive)	3240
N#Cc1nc(N2CCOCC2)nc(N2CCOCC2)n1	-0.39 (inactive)	3120
CC1CCCN(c2nc3c(c(=O)n(C)c(=O)n3C)n2CCSc2nc3ccccc3s2)C1 (stereo unspecified)	-0.38 (inactive)	3180
O=C(NCc1ccc(F)cc1)C1CCCN(S(=O)(=O)c2cccnc2)C1 (stereo unspecified)	-0.33 (inactive)	3070
CCCCN(C)C1=CC2=CC(=C(C#N)C#N)CCC2CC1 (stereo unspecified)	11.3	3120
CCCn1nc2cc(C(=O)NCc3ccccc3)ccc2c1OCC	-0.33 (inactive)	3340
COc1cc(OC)c(OC)cc1/C=C1\Oc2cc(OS(C)(=O)=O)ccc2C1=O	-0.24 (inactive)	3060
Oc1c(C=NCc2ccc(F)cc2)[nH]c2ccc(Br)c(Cl)c12	-0.31 (inactive)	3310
CC(C)=NNc1nc2c(c(=O)n(C)c(=O)n2C)n1CCc1ccccc1	-0.39 (inactive)	3610

Structure (SMILES)	z-score	cell count [cells]
CCCCCCc1cc2cc(-c3nnc(-c4ccccc4O)o3)c(=O)oc2cc1O	-0.21 (inactive)	2760
COc1cc(Cl)c(C)cc1NC(=O)CN(C)Cc1cccc(OC)c1OC	-0.26 (inactive)	2910
CN(C)C(=O)C12CCC(C)(c3nc4ccccc4nc31)C2(C)C (stereo unspecified)	-0.38 (inactive)	3350
COc1cccc2c(=O)n(CC(=O)Nc3cccc(F)c3)ccc12	-0.33 (inactive)	3120
Cc1nc2c(oc3ccccc32)c(=O)o1	-0.33 (inactive)	3020
CCC(C(=O)OCC(=O)Nc1cccc(S(=O)(=O)NC2=NCCCCC2)c1)c1ccccc1 (stereo unspecified)	-0.33 (inactive)	3080
COc1cccc(/C=N/NC(=O)c2oc3nc(-c4ccccc4)cc(-c4ccco4)c3c2N)c1	-0.32 (inactive)	3030
Cc1cc(C)c(C(=O)O)c(CC(C)(C)C(=O)O)c1	-0.33 (inactive)	3280
C=CCn1c(-c2oc3nc(-c4ccccc4)cc(-c4ccccc4)c3c2N)n[nH]c1=S	-0.33 (inactive)	2820
CCCN1CC=C2C(C#N)=C(N)C(C#N)(C#N)C(c3cc(OC)ccc3OC)C2C1 (stereo unspecified)	0.52	3140
COc1cccc(OC)c1OCCN(C)C	-0.33 (inactive)	3360
CC1(C)c2ccccc2N2CC(=O)NC21/C=C/c1ccco1 (stereo unspecified)	-0.33 (inactive)	2980
Cc1ccccc1OCC(=O)OC1CCN(C)CC1	-0.38 (inactive)	2940
CCC(=O)OCC(=O)c1c(N)n(Cc2ccccc2)c(=O)n(C)c1=O	-0.33 (inactive)	2890
COC(=O)C1=C(N)n2c(s/c(=C\c3cccnc3)c2=O)=C(C(=O)OC)C1c1cccnc1 (stereo unspecified)	-0.25 (inactive)	2640
COc1ccc(NC(=O)c2sc3nc(-c4cccnc4)ccc3c2N)cc1	-0.3 (inactive)	2880
C=CCn1c(SCCOc2ccc(OC)cc2)nnc1C(C)NC(=O)Cc1ccc(OC)cc1 (stereo unspecified)	-0.33 (inactive)	3140
COc1ccc(OCC(=O)Nc2ccc(S(=O)(=O)Nc3cc(C)nc(C)n3)cc2)cc1	-0.33 (inactive)	3070
O=C(Nc1ccc(N2CCCCC2)cc1)c1cccnc1	-0.39 (inactive)	3060
Fc1ccc(C2NCCn3cccc32)cc1 (stereo unspecified)	-0.38 (inactive)	2950
Cc1ccc(C(=O)NCCCn2ccnc2)cc1[N+](=O)[O-]	-0.39 (inactive)	3010
CCN1/C(=C/c2ccc3cc(C)ccc3[n+]2CC)Sc2ccccc21	1.64	190
Cn1c(=O)n(C)c2cc(NC(=O)COc3ccc(Cl)cc3)ccc21	-0.33 (inactive)	3010
Cc1ccc(S(=O)(=O)Nc2ccc(=O)n(Cc3ccc(Cl)c(Cl)c3)c2)cc1	-0.33 (inactive)	3230
Cc1cccc(NC(=O)/C=C/c2ccc([N+](=O)[O-])s2)c1	0.41	244
CCc1nnc(NC(=O)CCC(=O)NCc2ccccc2OC)s1	-0.38 (inactive)	2890
